Key:
ERα = ERα (Homo sapiens (Human), UniProt P03372); assay: Degradation effect of compounds on ERα in MCF-7 and CAMA-1 cells (automated western blot, 24 h); type: cell-based; details: ERα degradation in MCF-7 cells; for DC50: 24 hours; for Dmax at 0.1 µM: MCF7, @100 nM
Experimental: 2. Degradation Effect of Compounds on ERα in MCF-7 and CAMA-1 Cells
Breast cancer cells MCF-7 and CAMA-1 were purchased from ATCC, the cell media were all EMEM+10% FBS, and the cells were cultured in an incubator at 37° C. under 5% CO2. On the first day, the cells in an exponential phase were collected. With a 10% css-FBS phenol red-free medium, the cell suspension was adjusted to a corresponding concentration, plated at 300000 cells/well and incubated for 3 days. After 3 days, the liquid in the well was aspirated, and a 10% css-FBS phenol red-free medium containing the compound to be tested was added and cultured in an incubator at 37° C. under 5% CO2. After 24 hours, 60 μl of RIPA lysis solution (containing 1× protease inhibitor cocktail) was added to each well, lysed on ice for 15 minutes, and then centrifuged at 4° C. for 10 minutes at 12000 g. The supernatant protein samples were collected, and protein quantification was performed by a BCA method. ERα was detected using fully automatic protein expression quantitative analysis, which involved diluting the protein to be tested to 1.5 mg/mL. 4 μL of the diluted protein samples were added to 1 μL of 5×Master Mix (provided in the kit), and the prepared samples were denatured at 95° C. for 5 min and placed on ice for use. Antibody Diluent II (provided in the kit) was used to dilute the primary antibody, in which the dilution ratios of ERα (CST, 13258S) and β-actin (CST, 3700) antibodies were 1:40 and 1:500, respectively, the secondary antibody was a 1:1 mixture of goat anti-mouse and goat anti-rabbit secondary antibodies, and the chromogenic solution was a 1:1 mixture of Lumino-S and Peroxide. The prepared reagents were successively added to an assay plate according to instructions of the kit and detected on an instrument. Western blot band processing was performed using “Compass for SW”, a fully automatic protein expression quantitative analysis software, in which western blot bands were automatically simulated based on signal values. The proportion of ERα relative to the solvent control at different drug concentrations according to equation (1), wherein Acompound was the relative peak area of ERα in the treated group, and Asolvent was the relative peak area of ERα in the solvent control group.
ERα%=Acompound/Asolvent×100 equation (1)
DC50 calculation: Calculation was performed according to equation (1), and using Graphpad Prism 8.0 software, the compound concentration DC50 values at which the degradation rate of ERα was 50% were calculated using a non-linear four-parameter function (Non linear regression (curve fit)) (Table 1).

MCF-7 cells = assay: Inhibitory effect of compounds on the proliferation of MCF-7 cells (CellTiter-Glo, 7 days); type: cell-based; details: Homo sapiens, MCF7, 168 h, 7 days incubation
Experimental: 1. Inhibitory Effect of Compounds on the Proliferation of MCF-7 Cells
Breast cancer cells MCF-7 were purchased from ATCC, the cell media were all EMEM+10% FBS, and the cells were cultured in an incubator at 37° C. under 5% CO2. On the first day, cells in the exponential growth phase were collected and cultured in a 10% css-FBS phenol red-free medium without cytokines for 3 days. After the completion of culture, a 10% css-FBS phenol red-free medium was used to adjust the cell suspension to the corresponding concentration and same was plated to 1000 cells/well. P-estradiol and compounds of different concentrations were added. A plate without adding any reagent was taken and used as Day0 with a reading value RLUday0, determined with CellTiter-Glo kit, placed in an incubator and incubated for 7 days. After the incubation was completed, according to operation instructions for a CellTiter-Glo kit (Promega, G7573), 50 μL of CellTiter-Glo solutions, which were pre-melted and equilibrated to room temperature, were added to each well, and the mixtures were uniformly mixed for 2 min using a microplate shaker. The plate was placed at room temperature for 10 min, and then […] signal values were measured using a microplate reader (PHERAstar FSX). Chemiluminescence readouts were processed using origin9.2 software and the DoseResp function was used to calculate the GIsovalue for the inhibitory activity of compounds on the proliferation of cells (Table 1). The results were processed according to equation (1), the inhibition rate of the compound at different concentrations was calculated, and the GI50 value of the compound with a proliferation rate of 50% was calculated using origin9.2 software, wherein RLUcompound was the readout of the treated group, and RLUcontrol was the average value of the solvent control group.
Growth %=(RLUcompound−RLUday0)/(RLUcontrol−RLUday0)×100 equation (1)

CYP2C19 = CYP2C19 (Homo sapiens (Human), UniProt P33261); assay: CYP450 enzyme inhibition test, human liver microsomes; type: in vitro ADME; details: incubation concentration 0-50/100 μM
Experimental: 6. CYP450 Enzyme Inhibition Test
The purpose of this study was to evaluate the effect of the test compound on the activity of five isoenzymes (CYP1A2, CYP2C9, CYP2C19, CYP2D6 and CYP3A4) of human liver microsomal cytochrome P450 (CYP) by using an in vitro testing system. The specific probe substrates of CYP450 isoenzymes were incubated with human liver microsomes and test compounds of different concentrations, and reduced nicotinamide adenine dinucleotide phosphate (NADPH) was added to initiate the reaction. After the completion of the reaction, the sample was treated and liquid chromatography-tandem mass spectrometry (LC-MS/MS) was used to quantitatively detect metabolites produced by specific substrates, changes in CYP enzyme activity were determined, and IC50 value was calculated to evaluate the inhibitory potential of the test compound on each CYP enzyme subtype.

ERα, sequence (P03372 whole entry): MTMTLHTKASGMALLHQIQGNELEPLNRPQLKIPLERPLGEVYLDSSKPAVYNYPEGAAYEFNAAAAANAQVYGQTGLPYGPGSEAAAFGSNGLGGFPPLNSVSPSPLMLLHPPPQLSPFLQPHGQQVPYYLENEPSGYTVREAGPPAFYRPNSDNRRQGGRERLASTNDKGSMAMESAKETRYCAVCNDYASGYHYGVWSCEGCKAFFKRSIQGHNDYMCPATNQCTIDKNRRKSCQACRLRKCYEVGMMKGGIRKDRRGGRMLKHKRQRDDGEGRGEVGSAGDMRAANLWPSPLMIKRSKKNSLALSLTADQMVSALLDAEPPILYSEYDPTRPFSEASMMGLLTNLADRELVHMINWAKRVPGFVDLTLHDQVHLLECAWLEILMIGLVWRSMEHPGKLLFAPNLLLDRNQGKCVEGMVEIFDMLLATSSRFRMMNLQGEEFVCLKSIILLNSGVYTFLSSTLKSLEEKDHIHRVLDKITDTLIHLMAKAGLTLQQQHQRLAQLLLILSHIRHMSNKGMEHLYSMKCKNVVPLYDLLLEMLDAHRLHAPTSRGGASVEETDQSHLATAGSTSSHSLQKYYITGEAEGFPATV
CYP2C19, sequence (P33261 whole entry): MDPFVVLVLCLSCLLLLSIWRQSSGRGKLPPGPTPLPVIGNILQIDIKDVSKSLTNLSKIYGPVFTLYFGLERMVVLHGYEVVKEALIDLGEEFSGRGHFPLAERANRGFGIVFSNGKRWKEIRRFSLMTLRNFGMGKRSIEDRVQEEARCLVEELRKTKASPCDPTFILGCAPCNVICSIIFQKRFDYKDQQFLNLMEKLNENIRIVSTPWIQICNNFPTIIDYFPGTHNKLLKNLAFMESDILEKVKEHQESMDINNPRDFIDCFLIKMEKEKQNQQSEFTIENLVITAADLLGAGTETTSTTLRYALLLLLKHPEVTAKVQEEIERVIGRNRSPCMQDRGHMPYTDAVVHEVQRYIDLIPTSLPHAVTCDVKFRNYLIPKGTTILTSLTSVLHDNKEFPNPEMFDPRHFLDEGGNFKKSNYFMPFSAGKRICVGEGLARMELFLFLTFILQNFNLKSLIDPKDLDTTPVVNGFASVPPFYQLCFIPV

Row | Compound | DC50 (ERα) [nM] | Dmax at 0.1 µM (ERα) [%] | GI50 (MCF-7 cells) [nM] | IC50 (CYP2C19) [µM]
1 | C[C@@H]1Cc2c([nH]c3ccc(F)cc23)[C@@H](c2c(F)cc(N[C@H]3CCN(CCCF)C3)cc2F)N1CC(F)(F)F [Compound 18, (S)—N-(3,5-difluoro-4-((1R,3R)-6-fluoro-3-methyl-2-(2,2,2-trifluoroethyl)-2,3,4,9-tetrahydro-1H-pyrido[3,4-b]indol-1-yl)phenyl)-1-(3-fluoropropyl)pyrrolidin-3-amine] | 0.47 | 70 |  | 
2 | C#Cc1ccc2c3c([nH]c2c1)[C@@H](c1c(F)cc(N[C@H]2CCN(CCCF)C2)cc1F)N(CC(F)(F)F)[C@H](C)C3 [Compound 43, (S)—N-(4-((1R,3R)-7-ethynyl-3-methyl-2-(2,2,2-trifluoroethyl)-2,3,4,9-tetrahydro-1H-pyrido[3,4-b]indol-1-yl)-3,5-difluorophenyl)-1-(3-fluoropropyl)pyrrolidin-3-amine] |  |  | 0.219 | > 50
3 | C[C@@H]1Cc2c([nH]c3cc(F)ccc23)[C@@H](c2c(F)cc(N[C@H]3CCN(CCCF)C3)cc2F)N1CC(F)(F)F [Compound 32, (S)—N-(3,5-difluoro-4-((1R,3R)-7-fluoro-3-methyl-2-(2,2,2-trifluoroethyl)-2,3,4,9-tetrahydro-1H-pyrido[3,4-b]indol-1-yl)phenyl)-1-(3-fluoropropyl)pyrrolidin-3-amine] | 1.23 | 88 |  | 

Reference: patent US20240208932A1, “ARYLAMINO DERIVATIVE ESTROGEN RECEPTOR MODULATOR AND USE THEREOF” (XIZANG HAISCO PHARMACEUTICAL CO., LTD., priority 2021, published 2024)
